Assay results published in patent US10238688B2, “Combination therapies for bladder cancer” (GENEDIA BIOTECH CO. LTD., priority 2015, dated 2019).

What was measured:
[1] = system: bladder cancer cell lines; assay: Average cumulative cell survival (ACS) over the panel of cell lines tested; assay type: cell-based, human; details: for ACS (%): eight cell lines, Table S3, ng/ml: Pi 40, Pa 160, EH 250, Ci 1500, Mi 200, 1=Ci/Mi, 2=EH/Ci/Mi, 3=Pa/Ci/Mi, 4=Pi/Ci/Mi; for ACS: four-fold dosed component drugs alone: Ci 6000 ng/mL, Mi 800 ng/mL, EH 1000 ng/mL (Table S4); for ACS (%) for cancer cells: seven cancer cell lines, ng/ml: EH 1000, Ci 6000, Mi 800, Pi 160, Pa 640, Ge 20, EH/Ci/Mi regimen
Description: The clinical grade of the chemotherapeutics (NCI Dictionary of Cancer Terms) was provided by the First Affiliated Hospital of Harbin Medical University: Pirarubicin (Pi, Wanle, Shenzhen), Paclitaxel (Pa, Taiji, Sichuan), Adriamycin (Ad, Pfizer, Jiangsu), Epirubicin Hydrochloride (EH, Haizheng, Zhejiang), Hydroxycamptothecin (Hy, Lishizhen, Hubei), Cisplatin (Ci, Haosen, Jiangsu), Gemcitabine (Ge, Haosen, Jiangsu) and Mitomycin (Mi, Haizheng, Zhejiang). The drug induced cell death was determined by a thiazolyl […] (MTT, 490 nm reading) based cell proliferation assay in the cultured cells following treatment by various concentrations of drugs for 72 hours. The relative chemoresistance to each drug of all cell lines was calculated with the lowest IC50 as a reference. The overall chemoresistance of each cell line was described as “chemoresistance index”, the numerator of the total relative IC50 to all the drugs over the number of drugs to rank the overall resistance state of each cell line to the six chemotherapeutics collectively.
The “Differential Evolution” algorithm guided experimental optimization (DE) consisted of three iterative operations: generating drug combinations of experimental testing, acquiring the efficacy of the generated drug combinations with biological assays and recalculating further improved drug combinations using a feedback search algorithm. This example first tested twenty drug combinations at randomized doses. These drug combinations were generated from a random integer matrix generator, coded in MATLAB™ language. These twenty drug combinations were then experimentally tested for cancer cell cytotoxicity. The experimental data were then subjected to calculation with a DE algorithm for new drug combinations based on three major mathematical calculations: “Mutation”, “Crossover” and “Selection”. The equations for each step can be found in the main test. The equations for each step are coded in MATLAB™ language.
Twenty six-drug combinations at the indicated doses were initially generated through a random number generator (using MATLAB MathWorks©, Natick, Mass., U.S.) (The upper half of Table 1). The cell survival (% over the not drug control) of treated cells was determined and then used for a calculation of the average cumulative cell survival (%, ACS: the sum of cell survival (%) per combination divided by the number of cell lines tested). ACS<30% was used to separate the effective from the not-effective combinations. Nine of the twenty combinations tested in the 1st round of iteration fell into this category (the lower half of Table 1).

Myc/Max pathway = assay: Cignal Finder dual-luciferase pathway reporter, Myc/Max; assay type: cell-based, human; details: for Relative activity, Myc/Max reporter: luc/Renluc relative to negative control reporter, single drug at 4 folds vs EH/Ci/Mi combination
Description: The pathway analysis was performed with Qiagen's Cignal Finder Pathway Reporter Array systems according to the manufacturer's instructions. The pathway-focused dual-luciferase reporter construct was a mixture of an inducible transcription factor responsive firefly luciferase reporter and constitutively expressing renilla construct. Transcriptional response element (TRE) sequence response elements to each specific transcriptional factor triggered by the different signaling pathways are positioned before the TATA box of firefly luciferase reporter gene. The extent of activity of the reporter reflects the level of activity of the particular signaling pathway. CMV controlled renilla expression vector is co-transfected into the cell as an internal control. Non-inducible reporter construct that lacks the transcriptional factor binding sequence and could not be induced by any transcription factors is used as a negative control. Cells transfected with CMV directed firefly luciferase reporter gene serve as a positive control. Briefly, cells seeded in 6-well plates were transfected with Cignal finder pathway arrays according to the manufacturer's instructions (Qiagen). Then cells were seeded onto 96-well plates. […] After 6 h of incubation with the different drugs at 37° C., cells were lysed and a dual luciferase assay (for firefly and renilla luciferase) was performed using a PromegaGloMax 20/20 illuminometer. The firefly luciferase activities were normalized over the renilla luciferase activities after background activity determined by luciferase activities of negative controls was subtracted. A triple test of cell survival under these drug doses was also performed by MTT assay following 18 h incubation at 37° C. […]

[2] = system: CD34 positive vascular structures in tumor xenografts; assay: CD34 immunohistochemistry of tumor xenografts; assay type: in vivo, BALB/C male nude mice; details: relative to PBS controls; day 28
Description: Immunostaining was performed on 5 μm slices of formalin fixed paraffin-embedded tumor xenografts using antibodies from Gene Tech Company (Shanghai, China) against both Ki67 and CD34. Pictures were taken by LEICA DM 4000B microscope and the relative level of each protein was calculated using LEICA software. The relative staining per antibody (in percentage) in the […] tumors was calculated and plotted.
This example then compared the in vivo anticancer activity of EH/Ci/Mi regimen with its mono- and bi-drug counterparts on the 5637, UM-UC-3, or Biu87 cells derived tumor xenografts in nude mice. Since there is no established conversion rule for the drug dose in cell culture to in nude mice, this example used 75 μg per mouse for the mono-drug treatments and 25 μg per drug per mouse for both bi-drug and tri-drug combinations, based on the maximum tolerated drug dose recommended for these drugs. To minimize the inter-mouse bias's effect on tumor growth, three different BCa cell line-derived tumor xenografts were individually established subcutaneously on the back of the twelve mice (FIG. 5A). […] The tumor volumes were measured once every three days and were normalized by the volume on day 7. […]

Compound | ACS (%) [1] [%] | ACS [1] [%] | ACS (%) for cancer cells [1] [%] | digitalized pathway activity, Myc/Max (Myc/Max pathway; 5637 cells) | relative drug trigged pathway activity over the no-drug level, Myc/Max (Myc/Max pathway; 5637 cells) [fold] | Relative activity, Myc/Max reporter (Myc/Max pathway; 5637 cells) | digitalized pathway activity, Myc/Max (Myc/Max pathway; Biu87 cells) | relative drug trigged pathway activity over the no-drug level, Myc/Max (Myc/Max pathway; Biu87 cells) [fold] | Relative activity, Myc/Max reporter (Myc/Max pathway; Biu87 cells) | digitalized pathway activity, Myc/Max (Myc/Max pathway; H-bc cells) | relative drug trigged pathway activity over the no-drug level, Myc/Max (Myc/Max pathway; H-bc cells) [fold] | Relative activity, Myc/Max reporter (Myc/Max pathway; H-bc cells) | digitalized pathway activity, Myc/Max (Myc/Max pathway; SV-HUC-1 cells) | relative drug trigged pathway activity over the no-drug level, Myc/Max (Myc/Max pathway; SV-HUC-1 cells) [fold] | Relative activity, Myc/Max reporter (Myc/Max pathway; SV-HUC-1 cells) | Relative activity, Myc/Max reporter (Myc/Max pathway; UM-UC-3 cells) | relative drug trigged pathway activity over the no-drug level, Myc/Max (Myc/Max pathway; Um-Uc-3 cells) [fold] | numbers of CD34 positive vascular structures in tumor xenografts [2]
N.N.[Cl][Pt][Cl] [Ci, (SP-4-2)-diamminedichloroplatinum(II)] | 22.9 | 16.60 | 9.11 | 0 (null (0) if neither of the above holds) | 1.05 | 11.64 | 0 (null (0) if neither of the above holds) | 0.56 | 4.60 | 0 (null (0) if neither of the above holds) | 1.03 | 50.23 | 0 (null (0) if neither of the above holds) | 1 | 109.70 | 24.42 | 0.42 | reduced
COc1cccc2c1C(=O)c1c(O)c3c(c(O)c1C2=O)C[C@@](O)(C(=O)CO)C[C@@H]3[C@@H]1C[C@H](N)[C@@H](O)[C@H](C)O1 [EH, (8R,10S)-10-((2S,4S,5R,6S)-4-amino-5-hydroxy-6-methyltetrahydro-2H-pyran-2-yl)-6,8,11-trihydroxy-8-(2-hydroxyacetyl)-1-methoxy-7,8,9,10-tetrahydrotetracene-5,12-dione] | 39.75 | 9.11 | 16.60 |  | 1.5 | 16.61 |  | 1.66 | 13.61 | 0 (null (0) if neither of the above holds) | 1.37 | 17.62 | 0 (null (0) if neither of the above holds) | 1.13 | 125.00 | 25.48 | 0.44 | 
COC12C(COC(N)=O)C3=C(C(=O)C(C)=C(N)C3=O)N1CC1NC12 (stereo not shown) [Mi, [6-Amino-8a-methoxy-5-methyl-4,7-dioxo-1,1a,2,4,7,8,8a,8b-octahydroazireno [2′,3′:3,4]pyrrolo[1,2-a]indol-8-yl]methyl carbamate] | 56.85 | 40.49 | 40.49 |  | 1.97 | 21.77 | 0 (null (0) if neither of the above holds) | 1.16 | 9.49 | 0 (null (0) if neither of the above holds) | 0.75 | 9.86 | 0 (null (0) if neither of the above holds) | 1.45 | 160.00 | 22.41 | 0.38 | 
